Experimental data from patent US4317768A, “Dihydropyridine derivatives as stabilizers for vinyl chloride polymers” (priority 1977, dated 1982).
“Also recorded” adds a separate entry of the source. Each block holds one compound with its values, some of them ahead of it.

Tests used:
[1] = Thermostability, rigid co-polymer (d), ventilated oven 210° C.; settings: 0.3 part
Description: (§1) The study of the static thermostability of vinyl co-polymers was carried out according to the GARDNER method described above and, also in a more detailed manner in British Patent No. 1,489,685.
(d) Rigid co-polymer vinyl chloride-vinylidene chloride
(§2) The following compound was prepared:
The sheets were heated in a ventilated oven at 210° C.

[2] = Comparison with stabilizer G1, 0.3 part, 185° C.
[3] = Comparison with 1,4-butanediol-β-aminocrotonate and methyl-β-aminocrotonate, rigid co-polymer, 185° C.; settings: 0.5 part
Description: (a) Comparison with 1,4-butanediol-β-aminocrotonate and with methyl-β-aminocrotonate.
The following rigid co-polymer was prepared:
(§3) The sheets were heated in a ventilated oven at 185° C. and the following results were obtained: […]

[4] = Static thermostability (GARDNER method), rigid PVC sheets, 185° C., equimolecular quantities; settings: 1.55×10^-3 mol
Description: This study was carried out according to the GARDNER method, described in British Pat. No. 1,489,685.
The reference substance was 2-phenyl-indole, a well-known and widely used stabilizer.
The stabilizer (dihydropyridine or 2-phenyl-indole) and the other usual ingredients were mixed with powdered vinyl resins and the mixtures were calendered at a temperature of 160° C. to give rigid sheets.
The sheets were then heated in a thermostated oven (185° C. or 210° C.) for different intervals of time until incipient carbonization.
The coloration of the samples was compared to a standard scale of coloration, known as the GARDNER scale and was expressed in terms of the reference figures of the GARDNER scale.
This study was carried out with the following resin:
Polyvinyl chloride resin
SL 2016 is a solution of zinc-2-ethyl-hexanoate in a mixture of hydrocarbons boiling between 158° C. and 184° C.
Finally, a trail was performed at 185° C., with resins containing equimolecular quantities of the dihydropyridines or of 2-phenyl-indole, namely 1.55×10^-3 mol. In this case too, the samples were removed from the oven every 6 minutes over a period of 24 minutes and then every 3 minutes until the 42nd minute (or until carbonization).

[5] = Comparison with 2-phenyl-indole, vinyl chloride-vinyl acetate co-polymer, 185° C.; settings: 0.3 part
Description: (c) Comparison with 2-phenyl-indole
A comparative test was made using the following compound:
as §3

[6] = Comparison with stabilizer G1, rigid co-polymer (12.5 to 13.5% of acetate), 0.5 part, 185° C.
Source text: Another comparison was made with the following rigid co-polymer: […]

[7] = Stabilization of plastified vinyl resins (pressed plates); settings: plastified resin
Description: This study was carried out by pressing plates from sheets which had been mixed for 5 minutes at 180° C., the pressing also lasting 5 minutes but at 170° C.
The same parameters as hereabove were studied, namely the duration of the stability of the colour, the duration of the thermostability and the colour of the pressed plate.

[8] = Colour of the resin after each passage in a blower-extruder; settings: blower-extruder
Description: (2) Examination of the colour of the resin after each passage (3 in all) in a blower-extruder, the mould being a 250 ml cylindrical flask.
Four resins where tested, the first containing 0.2% of 2-phenyl-indole and the others 0.2%, 0.03% and 0.015% of compound 1 respectively.

[9] = Antioxidant power on a polyvinyl chloride resin, Metrastat oven, 210° C.
Description: By direct comparison, on a polyvinyl chloride resin, of the antioxidant power of Compound 1 of the invention and that of an antioxidant known as one of the most valuable and frequently used in polyvinyl chloride, namely 2,6-diterbutyl-4-methyl-phenol.
The antioxidant power of Compound 1 was compared to that of 2,6-diterbutyl-4-methyl-phenol (Compound 2) by using the following resin:
The same trials were carried out in a Metrastat oven at 210° C.

[10] = Thermostability, rigid co-polymer (e), ventilated oven 210° C.; settings: 0.3 part
Description: as §1
(e) Rigid co-polymer vinyl chloride-vinylidene chloride
as §2
The sheets were heated in a ventilated oven at 210° C. and the following results were obtained: […]

[11] = Antioxidant power on a polyvinyl chloride resin, GARDNER method, 185° C.

SMILES: CC1=C(C(=O)OCc2ccccc2)CC(C(=O)OCc2ccccc2)=C(C)N1 [Compound 21, 2,6-Dimethyl-3,5-dicarbobenzyloxy-1,4-dihydropyridine]
coloration, GARDNER scale ([1]; 0 min): 1.5 | coloration, GARDNER scale ([1]; 3 min): 2 | coloration, GARDNER scale ([1]; 6 min): 2 | coloration, GARDNER scale ([1]; 9 min): 3 | coloration, GARDNER scale ([1]; 12 min): 7 | coloration, GARDNER scale ([1]; 15 min): 15 | coloration, GARDNER scale ([2]; 0 min): 1 | coloration, GARDNER scale ([2]; 2 min): 1 | coloration, GARDNER scale ([2]; 4 min): 2 | coloration, GARDNER scale ([2]; 6 min): 4 | coloration, GARDNER scale ([2]; 8 min): 7 | coloration, GARDNER scale ([2]; 10 min): 12 | coloration, GARDNER scale ([2]; 12 min): 16 | coloration, GARDNER scale ([2]; 14 min): 18 | coloration, GARDNER scale ([3]; 0 min): 1 | coloration, GARDNER scale ([3]; 2 min): 1 | coloration, GARDNER scale ([3]; 4 min): 4 | coloration, GARDNER scale ([3]; 6 min): 6 | coloration, GARDNER scale ([3]; 8 min): 11 | coloration, GARDNER scale ([3]; 10 min): 13 | coloration, GARDNER scale ([3]; 12 min): 17 | coloration, GARDNER scale ([4]; 0 min): 1 | coloration, GARDNER scale ([4]; 6 min): 1 | coloration, GARDNER scale ([4]; 12 min): 1 | coloration, GARDNER scale ([4]; 18 min): 4 | coloration, GARDNER scale ([4]; 24 min): 6 | coloration, GARDNER scale ([4]; 27 min): 8 | coloration, GARDNER scale ([4]; 30 min): 11 | coloration, GARDNER scale ([4]; 33 min): 15 | coloration, GARDNER scale ([4]; 36 min): Burnt | coloration, GARDNER scale ([5]; 0 min): 1 | coloration, GARDNER scale ([5]; 2 min): 1 | coloration, GARDNER scale ([5]; 4 min): 2 | coloration, GARDNER scale ([5]; 6 min): 3 | coloration, GARDNER scale ([5]; 8 min): 7 | coloration, GARDNER scale ([5]; 10 min): 10 | coloration, GARDNER scale ([5]; 12 min): 12 | coloration, GARDNER scale ([5]; 14 min): 16

stability of colour compared to 2-phenyl-indole, in words ([8]; listed as compound 1): excellent behaviour
SMILES: C=CCOC(=O)C1=C(C)NC(C)=C(C(=O)OCC=C)C1 [Compound 1, 2,6-Dimethyl-3,5-dicarboallyloxy-1,4-dihydropyridine]
coloration, GARDNER scale ([6]; 0 min): 1 | coloration, GARDNER scale ([6]; 2 min): 1 | coloration, GARDNER scale ([6]; 4 min): 2 | coloration, GARDNER scale ([6]; 6 min): 3 | coloration, GARDNER scale ([6]; 10 min): 12 | coloration, GARDNER scale ([6]; 12 min): 18 | coloration, GARDNER scale ([6]; column without printed time, between 6 and 10 min): 7 | influence on stability / basic colour of the plate, in words [7]: favourable influence on the stability of the plate; also recorded: favourable influence on the basic colour | stability of colour compared to 2-phenyl-indole, in words [8]: markedly superior; also recorded: at all times superior to 2-phenyl-indole used at a concentration of 0.2% | time of burning (B) ([9]; 0.05 part): 40 ' | coloration, GARDNER scale ([9]; 0.05 part, 0 to 10 min): 1 | coloration, GARDNER scale ([9]; 0.05 part, 10 to 20 min): 1 | coloration, GARDNER scale ([9]; 0.05 part, 20 to 25 min): 1 | coloration, GARDNER scale ([9]; 0.05 part, 25 to 30 min): 1 | coloration, GARDNER scale ([9]; 0.05 part, 35 to 40 min): > 10 | time of burning (B) ([9]; 0.1 part): 38 ' | coloration, GARDNER scale ([9]; 0.1 part, 0 to 10 min): 1 | coloration, GARDNER scale ([9]; 0.1 part, 10 to 20 min): 1 | coloration, GARDNER scale ([9]; 0.1 part, 20 to 25 min): 1 | coloration, GARDNER scale ([9]; 0.1 part, 25 to 30 min): 1 | coloration, GARDNER scale ([9]; 0.1 part, 35 to 40 min): < 10 | time of burning (B) ([9]; 0.2 part): 39 ' | coloration, GARDNER scale ([9]; 0.2 part, 0 to 10 min): 1 | coloration, GARDNER scale ([9]; 0.2 part, 10 to 20 min): 1 | coloration, GARDNER scale ([9]; 0.2 part, 20 to 25 min): 1 | coloration, GARDNER scale ([9]; 0.2 part, 25 to 30 min): 1 | coloration, GARDNER scale ([9]; 0.2 part, 35 to 40 min): < 9 | time of burning (B) ([9]; 0.3 part): 39 ' | coloration, GARDNER scale ([9]; 0.3 part, 0 to 10 min): 1 | coloration, GARDNER scale ([9]; 0.3 part, 10 to 20 min): 1 | coloration, GARDNER scale ([9]; 0.3 part, 20 to 25 min): 1 | coloration, GARDNER scale ([9]; 0.3 part, 25 to 30 min): 1 | coloration, GARDNER scale ([9]; 0.3 part, 35 to 40 min): < 9 | time of burning (B) ([9]; 0.4 part): 38 ' | coloration, GARDNER scale ([9]; 0.4 part, 0 to 10 min): 1 | coloration, GARDNER scale ([9]; 0.4 part, 10 to 20 min): 1 | coloration, GARDNER scale ([9]; 0.4 part, 20 to 25 min): 1 | coloration, GARDNER scale ([9]; 0.4 part, 25 to 30 min): 1 | time of burning (B) ([9]; 0.5 part): 38 ' | coloration, GARDNER scale ([9]; 0.5 part, 0 to 10 min): 1 | coloration, GARDNER scale ([9]; 0.5 part, 10 to 20 min): 1 | coloration, GARDNER scale ([9]; 0.5 part, 20 to 25 min): 1 | coloration, GARDNER scale ([9]; 0.5 part, 25 to 30 min): 1 | time of burning (B) ([9]; 1.0 part): 37 ' | coloration, GARDNER scale ([9]; 1.0 part, 0 to 10 min): 1 | coloration, GARDNER scale ([9]; 1.0 part, 10 to 20 min): 1 | coloration, GARDNER scale ([9]; 1.0 part, 20 to 25 min): 1 | coloration, GARDNER scale ([9]; 1.0 part, 25 to 30 min): 1 | antioxidant power, Compound 1 vs Compound Z, in words ([9]; 210° C.): markedly superior to Compound Z | coloration, GARDNER scale ([10]; 0 min): 1 | coloration, GARDNER scale ([10]; 3 min): 1 | coloration, GARDNER scale ([10]; 6 min): 2 | coloration, GARDNER scale ([10]; 9 min): 4 | coloration, GARDNER scale ([10]; 12 min): 10 | antioxidant power, Compound 1 vs Compound Z, in words [11]: superior to Compound Z at every concentration
